Test results as given in patent EP2295560A1, “Directed evolution of arginine deiminase for increased activity at physiological pH” (priority 2009, dated 2011).

Biological target: Pseudomonas plecoglossicida arginine deiminase (PpADI) variant M2 (K5T D44E H404R) (Pseudomonas plecoglossicida, UniProt A7LKB0, D44E/H404R/K5T)
Assay: Determination of kcat and Km (citrulline colorimetric assay, purified enzyme)
Format: biochemical, Pseudomonas plecoglossicida CGMCC2039
Settings: pH 7.4, conversion of arginine to citrulline, compared to wild type
Description: The kcat and Km values were determined from initial velocity data measured as a function of substrate concentration. Enzyme reaction was carried out at 37°C in a water bath. After 10 min preincubation at 37"C, the enzyme reaction was initiated by addition of purified enzyme (50 µl, 0.2-0.5 µM) to the substrate solution (200 µl, 0.2 mM to 10 mM of arginine, 0.5 M phosphate buffer, pH 7.4) in deep well plates. The reaction mixture was incubated (37°C) and every two minutes reaction mixture (30 µl) of each well was transferred to acid-ferric solution (30 µl) to stop the enzyme reaction. The color development was subsequently performed in 96-well PCR plate. Ferric-acid solution (90 µl) and DAM-TSC solution (15 µl) were added to each well. The 96-well PCR plate was then incubated (70°C, 30 min) in thermal cycler (Eppendorf Mastercyler gradient) for color development, followed by incubation in ice water to stop color development. Absorbance was measured at 530 nm using a microtiter plate reader (SPECTROstar Omega, BMG LABTECH, Offenburg, Germany). […] The kcat was calculated from the ratio of Vmax, and enzyme concentration. […]

Sequence of Pseudomonas plecoglossicida arginine deiminase (PpADI) variant M2 (K5T D44E H404R) (A7LKB0 whole entry D44E/H404R/K5T): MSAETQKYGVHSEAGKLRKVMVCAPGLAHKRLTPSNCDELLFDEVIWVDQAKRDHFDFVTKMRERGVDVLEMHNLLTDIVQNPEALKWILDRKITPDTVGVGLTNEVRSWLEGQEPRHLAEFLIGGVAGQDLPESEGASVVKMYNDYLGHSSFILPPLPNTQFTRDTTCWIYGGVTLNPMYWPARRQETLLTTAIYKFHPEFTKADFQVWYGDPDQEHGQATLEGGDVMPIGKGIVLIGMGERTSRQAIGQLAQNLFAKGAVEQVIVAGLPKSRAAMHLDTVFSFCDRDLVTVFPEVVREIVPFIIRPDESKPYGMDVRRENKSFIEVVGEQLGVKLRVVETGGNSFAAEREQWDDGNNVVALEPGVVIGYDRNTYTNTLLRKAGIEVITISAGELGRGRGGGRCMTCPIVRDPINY

Compound: N=C(N)NCCC[C@H](N)C(=O)O [arginine]
- kcat, fold higher than wild type PpADI: 4 fold
